According to the RepoRT retention time repository (doi:10.1021/acs.analchem.1c00972):

Assays:
Details in all cases: stereoisomer not certain
[1] = RP, Phenomenex Synergi Polar-RP, 100 × 3 mm, 2.5 µm, 40 °C, 0.4 mL/min, estimated dead time 1.1 min; A: water + 1 mM ammonium fluoride; B: methanol + 1 mM ammonium fluoride; C: acetonitrile; D: 50% isopropanol + 50% acetone; gradient (min/%B/%C/%D) 0/5/0/0 2/5/0/0 8/95/0/0 12/80/15/0 19/25/70/0 19.5/0/25/70 21.5/0/25/70 22.5/0/25/0 23/5/0/0
[2] = RP, Waters ACQUITY UPLC BEH C18, 100 × 1 mm, 1.7 µm, 50 °C, 0.3 mL/min, estimated dead time 0.17 min; A: water + 10 mM ammonium bicarbonate; B: 10% water + 90% methanol + 10 mM ammonium bicarbonate; gradient (min/%B) 0/0 15/100 21/100 22/0 30/0
[3] = RP, Waters ACQUITY UPLC BEH C18, 100 × 1 mm, 1.7 µm, 50 °C, 0.3 mL/min, estimated dead time 0.17 min; A: water + 0.1% formic acid + 20 mM ammonium formate; B: methanol + 0.1% formic acid + 20 mM ammonium formate; gradient (min/%B) 0/0 15/100 21/100 22/0 30/0

Row | LC retention time [1] | LC retention time [2] | LC retention time [3] | Compound
1 | 8.69 min | – | – | O=C1CN(N=Cc2ccc([N+](=O)[O-])o2)C(=O)N1 [Nitrofurantoin]
2 | – | 14.6 min | 14.7 min | COC1C=COC2(C)Oc3c(C)c(O)c4c(O)c(c5c(nc6cc(C)ccn65)c4c3C2=O)NC(=O)C(C)=CC=CC(C)C(O)C(C)C(O)C(C)C(OC(C)=O)C1C (configuration not stated) [Rifaximin]
3 | – | 4.91 min | 8.5 min | COc1ccc2c(c1)OC(O)C(=O)N2O (configuration not stated) [DIMBOA]
4 | – | 18.3 min | 17.9 min | CCC(C)C1OC2(C=CC1C)CC1CC(CC=C(C)C(OC3CC(OC)C(OC4CC(OC)C(NC(C)=O)C(C)O4)C(C)O3)C(C)C=CC=C3COC4C(O)C(C)=CC(C(=O)O1)C34O)O2 (configuration not stated) [Eprinomectin B1a]
5 | – | 10.6 min | 10.9 min | CCCc1nc(C(C)(C)O)c(C(=O)O)n1Cc1ccc(-c2ccccc2-c2nn[nH]n2)cc1 [Olmesartan]
6 | – | 8.6 min | 7.04 min | CNC(CC(C)C)C(=O)NC1C(=O)NC(CC(N)=O)C(=O)NC2C(=O)NC3C(=O)NC(C(=O)NC(C(=O)O)c4cc(O)cc(O)c4-c4cc3ccc4O)C(O)c3ccc(c(Cl)c3)Oc3cc2cc(c3OC2OC(CO)C(O)C(O)C2OC2CC(C)(N)C(O)C(C)O2)Oc2ccc(cc2Cl)C1O (configuration not stated) [Vancomycin]
7 | – | 14 min | 8.49 min | CN(C)CCOC(C)(c1ccccc1)c1ccccn1 (configuration not stated) [Doxylamine]
8 | – | 16.6 min | 16.4 min | C#CC1(OC(C)=O)CCC2C3CCC4=CC(=NO)CCC4C3CCC21CC (configuration not stated) [Norgestimate]
9 | – | 9.15 min | 9.42 min | N=c1nc(N)c(-c2cccc(Cl)c2Cl)nn1O [Lamotrigin-N2-Oxid]
10 | – | 15.1 min | 14.8 min | Cc1ccc(C(C)NC(=O)C(NC(=O)OC(C)C)C(C)C)cc1 (configuration not stated) [Iprovalicarb]
11 | – | 8.77 min | 4.92 min | CCC1C(=O)OCC1Cc1cncn1C (configuration not stated) [Pilocarpine]
12 | – | 9.52 min | 9.42 min | CC(=O)N(C)N(C(=O)C(=O)N(C)C)c1ccccc1 [AMDOPH]
13 | – | 8.11 min | 10 min | N#Cc1c(Cl)c(Cl)c(O)c(C(N)=O)c1Cl
14 | – | 5.99 min | 5.75 min | Nc1nc(=O)n(C2CSC(CO)O2)cc1F (configuration not stated) [Emtricitabine]
15 | – | 3.64 min | 3.66 min | CC(O)C(=O)Nc1c(I)c(C(=O)NC(CO)CO)c(I)c(C(=O)NC(CO)CO)c1I (configuration not stated) [Iopamidol]
16 | – | 13.6 min | 7.37 min | Cc1cc(C)c2ccccc2n1 [2,4-Dimethylchinolin]
17 | – | 15.7 min | 15.4 min | CCOC(=O)C1=NOC(c2ccccc2)(c2ccccc2)C1 [Isoxadifen-ethyl]

Row | LC retention time [1] | LC retention time [2] | LC retention time [3] | Compound
18 | – | 10.4 min | 6.96 min | CC(C)NCC(O)COc1ccc(C(=O)O)cc1 (configuration not stated) [Bisoprolol_M3]
19 | – | 13.8 min | 13.6 min | CC1(C)OC2CC3C4CC(F)C5=CC(=O)C=CC5(C)C4C(O)CC3(C)C2(C(=O)CO)O1 (configuration not stated) [Flunisolide]
20 | – | 11.1 min | 10.9 min | CN(C)C(=O)NC1CCCCC1 [3-Cyclohexyl-1,1-dimethylurea]
21 | – | 15.8 min | 15.5 min | O=C1Nc2ccc(Cl)cc2C(C#CC2CC2)(C(F)(F)F)O1 (configuration not stated) [Efavirenz]
22 | – | 7.59 min | 7.57 min | NC(=O)c1c(Cl)cccc1Cl [2,6-Dichlorobenzamide]
23 | – | 16.1 min | 11.3 min | O=C1Cc2cc(CCN3CCN(c4nsc5ccccc45)CC3)c(Cl)cc2N1 [Ziprasidone]
24 | – | 13.8 min | 13.5 min | Clc1nc2ccccc2s1 [2-Chlorobenzothiazole]
25 | – | 15.6 min | 15.3 min | CCC(=O)OC1(C(=O)SCF)C(C)CC2C3CC(F)C4=CC(=O)C=CC4(C)C3(F)C(O)CC21C (configuration not stated) [Fluticasone propionate]
26 | – | 14.7 min | 10.4 min | CN1CCC(=C2c3ccccc3CC(=O)c3sccc32)CC1 [Ketotifen]
27 | – | 20.1 min | 16.7 min | CCCCc1oc2ccccc2c1C(=O)c1cc(I)c(OCCN(CC)CC)c(I)c1 [Amiodarone]
28 | – | 17.4 min | 17.1 min | Cc1ccc(C=C2C(=O)C3(C)CCC2C3(C)C)cc1 (configuration not stated) [4-Methylbenzylidene camphor]
29 | – | 6.92 min | 6.88 min | NCCc1ccc(O)c(O)c1 [Dopamine]
30 | – | 14.6 min | 14.3 min | CCOC(=O)c1ccc(N(C)C)cc1 [Ethyl-4-dimethylaminobenzoate]
31 | – | 13 min | 12.8 min | CNC(=O)Nc1ccc(Cl)c(Cl)c1 [1-(3,4-Dichlorphenyl)-3-methyl-Harnstoff]
32 | – | 15.9 min | 15.5 min | CC(=O)C1CCC2C3CCC4=CC(=O)CCC4(C)C3CCC12C (configuration not stated) [Progesterone]
33 | – | 12.1 min | 12 min | Cc1ccc(NS(=O)(=O)N(C)C)cc1 [DMST]
34 | – | 17.3 min | 17 min | CC(C)OC(=O)C(C)(C)Oc1ccc(C(=O)c2ccc(Cl)cc2)cc1 [Fenofibrate]

More lines, now with the values behind:

Row | Compound | LC retention time [1] | LC retention time [2] | LC retention time [3]
35 | CS(=O)(=O)c1ccc(C(=O)C2C(=O)CCCC2=O)c(Cl)c1COCC(F)(F)F [Tembotrione] | – | 15.6 min | 13.4 min
36 | O=c1c2cc(F)ccc2nc(-n2cncn2)n1-c1ccc(Cl)cc1Cl [Fluquinconazole] | – | 15 min | 14.7 min
37 | COC1CC(CC2CCC(C)C(C(C)C(=O)O)O2)OC2(OC(C)(C3CCC(C)(C4OC(C5OC(O)(CO)C(C)CC5C)CC4C)O3)CC2C)C1C (configuration not stated) [Nigericin] | – | 19.7 min | 18.8 min
38 | CN1C2CCC1C(C(=O)O)C(OC(=O)c1ccccc1)C2 (configuration not stated) [Benzoylecgonin] | – | 11.6 min | 11.5 min
39 | CCCCOC(=O)COC(=O)c1ccccc1C(=O)OCCCC [2-Butoxy-oxoethylbutylphthalate] | – | 16.6 min | 16.2 min
40 | C=C(C)C1C2OC(=O)C1C1(O)CC3OC34C(=O)OC2C14C (configuration not stated) [Picrotoxinin] | – | 9.36 min | 9.25 min
41 | CCCCC(CC)COP(=O)(O)OCC(CC)CCCC (configuration not stated) [Bis(2-ethylhexyl)phosphate] | – | 17.2 min | 17.2 min
42 | Nc1ncnc2nc[nH]c12 [Adenine] | – | 2.55 min | 5.28 min
43 | CC(=O)c1cc2c(cc1C)C(C)(C)C(C)C2C(C)C (configuration not stated) [Traseolide] | – | 18.2 min | 17.8 min
44 | O=C1NC2C(=CC(O)C(O)C2O)c2cc3c(c(O)c21)OCO3 (configuration not stated) [Narciclasine] | – | 7.93 min | 7.92 min
45 | CC12CCC3C(CCC4(O)CC(O)CCC34C=O)C1(O)CCC2C1=CC(=O)OC1 (configuration not stated) [Strophanthidin] | – | 11.3 min | 11 min
46 | CC=C1CC(C)C(O)(CO)C(=O)OCC2=CC[N+]3([O-])CCC(OC1=O)C23 (configuration not stated) [Retrorsine N-oxide] | – | 8.61 min | 7.74 min
47 | O=C1CC2(CCCCC2)CN1 [Gabapentin-Lactam] | – | 11.4 min | 11.3 min
48 | COCC(=O)N(c1c(C)cccc1C)N1CCOC1=O [Oxadixyl] | – | 11.2 min | 11 min
49 | CC(=O)OC1CC2(C)C3(CO3)C1OC1C=C(C)C(=O)C(O)C12CO (configuration not stated) [3-Acetyl-Deoxynivalenol] | – | 9.74 min | 9.62 min
50 | Cc1cc(C)nc(NC(=O)NS(=O)(=O)c2ccccc2C(=O)OC2COC2)n1 [Oxasulfuron] | – | 9.07 min | 11.3 min
51 | COc1cc2c3c(c1OC)-c1ccccc1CC3N(C)CC2 (single isomer, unassigned; (-)) [(-)-Nuciferine] | – | 15.6 min | 10.5 min
52 | CCCOc1nn(C(=O)NS(=O)(=O)c2ccccc2C(=O)OC)c(=O)n1C [Propoxycarbazone] | – | 9.89 min | 11.8 min
53 | CC=C1CC(C)C(C)(O)C(=O)OCC2=CCN(C)CCC(OC1=O)C2=O (configuration not stated) [Senkirkine] | – | 10.2 min | 9.47 min
54 | CN1C2CC(OC(=O)C(CO)c3ccccc3)CC1C1OC12 (single isomer, unassigned; (-)) [(-)-Scopolamine] | – | 11.2 min | 7.05 min
55 | CCc1cccc(C)c1N [6-Ethyl-2-toluidine] | – | 12.7 min | 10.8 min
56 | CCN1CC2(COC)C(O)CC(OC)C34C5CC6(O)C(OC)C(O)C(OC(C)=O)(C5C6OC(=O)c5ccccc5)C(C(OC)C23)C14 (configuration not stated) [Aconitin] | – | 15.7 min | 12.1 min
57 | CCCCCCCCCCCC(=O)N(CCO)CCO [Lauryl diethanolamide] | – | 16.8 min | 16.4 min
58 | C=C1CC2C(CCC3(C)C(=O)CCC23)C2(C)C=CC(=O)C=C12 (configuration not stated) [Exemestane] | – | 14.3 min | 14 min
59 | O=C(Nc1ccccc1)c1ccccc1I [Benodanil] | – | 12.9 min | 12.7 min
